The source of these data is PubChem BioAssay (NCI).

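48-hour exposure; five concentrations; linearly interpolated endpoints. GI50 marks 50% less growth. TGI is the concentration that stops growth completely.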

Among the test systems are CCRF-CEM leukemia; A549 NSCLC; M14 melanoma; OVCAR-4 ovarian; HT29 colon; BT-549 breast; UACC-62 melanoma; SN12C renal; RXF 393 renal; HL-60(TB) leukemia.
Holding throughout (assay): growth of human tumour cells (NCI), 48 h

For the compound `COc1ccc2nc3cc(Cl)ccc3c(NCCCNCCO)c2c1`, the GI50 with CCRF-CEM leukemia is 0.476 µM; in the assay on A549 NSCLC it was 0.378 µM; with M14 melanoma, 0.562 µM; with OVCAR-4 ovarian it was 0.484 µM; with HT29 colon, 0.292 µM; with BT-549 breast, 1.89 µM. The GI50 in the assay with UACC-62 melanoma is 0.807 µM; in the assay on SN12C renal, 0.371 µM; in the assay on RXF 393 renal, 0.58 µM; in the assay on HL-60(TB) leukemia it was 0.613 µM. Also, the TGI in the assay with CCRF-CEM leukemia was determined as 2.28 µM; with A549 NSCLC, 2.06 µM; in the assay on M14 melanoma it was 2.16 µM; with OVCAR-4 ovarian, 2.87 µM; in the assay with HT29 colon it was 1.41 µM; with BT-549 breast, 3.71 µM. Moreover, the TGI in the assay with UACC-62 melanoma is 2.54 µM; with SN12C renal it was 2.48 µM; in the assay on RXF 393 renal, 2.22 µM; with HL-60(TB) leukemia, 2.64 µM.

As to `COc1ccc2c(c1)OC(N)=C(C#N)C2c1cc(OC)c(OC)c(OC)c1` (centres undefined), the GI50 with CCRF-CEM leukemia was 0.0337 µM; with A549 NSCLC, 0.0401 µM; in the assay on M14 melanoma, 0.0336 µM; with OVCAR-4 ovarian it was 0.0714 µM; with HT29 colon, 0.0328 µM; with BT-549 breast, 0.0268 µM. The GI50 in the assay with UACC-62 melanoma is 0.0343 µM; in the assay with SN12C renal, 0.0494 µM; in the assay with RXF 393 renal it was 0.0344 µM; in the assay on HL-60(TB) leukemia it was 0.0256 µM. Moreover, the TGI with CCRF-CEM leukemia was greater than 100 µM; in the assay on A549 NSCLC, greater than 100 µM; with M14 melanoma, greater than 100 µM; in the assay with OVCAR-4 ovarian, greater than 100 µM; in the assay on HT29 colon it was 0.172 µM; with BT-549 breast, 0.0836 µM. In addition, the TGI with UACC-62 melanoma was greater than 100 µM; in the assay with SN12C renal, greater than 100 µM; in the assay on RXF 393 renal, 73.6 µM; with HL-60(TB) leukemia, 0.068 µM.

`COc1cc([N+](=O)[O-])c(OC)cc1-c1nc2sc(C)c(C)n2c1/C(N)=N/C(=N)N`: the GI50 in the assay with CCRF-CEM leukemia was 6.01 µM; in the assay on A549 NSCLC it was greater than 100 µM; with M14 melanoma, greater than 100 µM; with HT29 colon it was greater than 100 µM; with BT-549 breast, greater than 100 µM; in the assay on RXF 393 renal, greater than 100 µM. Also, the GI50 with HL-60(TB) leukemia was greater than 100 µM. The TGI with CCRF-CEM leukemia, in the assay on A549 NSCLC, with M14 melanoma, in the assay with HT29 colon, in the assay on BT-549 breast and in the assay on RXF 393 renal was greater than 100 µM each time. For the same compound, the TGI in the assay with HL-60(TB) leukemia is greater than 100 µM.

For `COc1cc2oc(-c3cccc(C(=O)Nc4ccc(Cl)cc4)c3)cc(=O)c2c(OC)c1OC`, the GI50 is 2.28 µM in the assay with CCRF-CEM leukemia; 3.56 µM in the assay with A549 NSCLC; 1.38 µM in the assay with M14 melanoma; 3.05 µM in the assay with OVCAR-4 ovarian; 1.97 µM in the assay with HT29 colon; 1.18 µM with BT-549 breast. Moreover, the GI50 in the assay on UACC-62 melanoma was 2.5 µM; in the assay on SN12C renal it was 3.49 µM; with RXF 393 renal, 1.25 µM. Besides, the TGI in the assay with CCRF-CEM leukemia was greater than 100 µM; in the assay on A549 NSCLC, greater than 100 µM; in the assay on M14 melanoma it was 4.73 µM; with OVCAR-4 ovarian it was greater than 100 µM; in the assay on HT29 colon it was 6.65 µM; in the assay with BT-549 breast it was greater than 100 µM. The TGI in the assay with UACC-62 melanoma is 8.65 µM; in the assay on SN12C renal, greater than 100 µM; in the assay on RXF 393 renal, 5.09 µM.

Consider `CCOC(=O)CSc1cc(Cl)c(C)cc1S(=O)(=O)/N=C(/N=C/c1ccc([N+](=O)[O-])s1)NNC`, for which the GI50 with CCRF-CEM leukemia was 30.3 µM; in the assay on A549 NSCLC, 32.7 µM; in the assay with M14 melanoma it was 23.1 µM; in the assay on OVCAR-4 ovarian, 20.7 µM; in the assay on HT29 colon, 15 µM; in the assay on BT-549 breast it was 20.5 µM. Also, the GI50 is 14.1 µM in the assay with UACC-62 melanoma, 22 µM in the assay on RXF 393 renal and 21.7 µM in the assay with HL-60(TB) leukemia. The TGI with CCRF-CEM leukemia is greater than 100 µM; with A549 NSCLC it was greater than 100 µM; with M14 melanoma, 56.8 µM; in the assay with OVCAR-4 ovarian, 62.4 µM; in the assay with HT29 colon it was 28.2 µM; with BT-549 breast it was 46.3 µM. Also, the TGI with UACC-62 melanoma was 30.8 µM; with RXF 393 renal it was greater than 100 µM; in the assay with HL-60(TB) leukemia, 53.7 µM.

For the compound `C[C@@]1([C@H](OC(=O)c2ccccc2)C(N)=O)CO1`, the GI50 was 19.7 µM in the assay on CCRF-CEM leukemia; 24 µM in the assay with A549 NSCLC; 22.1 µM in the assay with M14 melanoma; 37.6 µM in the assay on OVCAR-4 ovarian; 27 µM in the assay on HT29 colon; 20.8 µM in the assay with BT-549 breast. The results for the GI50 in the assay with UACC-62 melanoma, in the assay on SN12C renal and with RXF 393 renal were 14.9 µM, 13.7 µM and 18 µM, respectively. In addition, the TGI with CCRF-CEM leukemia is greater than 100 µM; with A549 NSCLC, 61.4 µM; in the assay on M14 melanoma, 53.9 µM; in the assay with OVCAR-4 ovarian it was greater than 100 µM; with HT29 colon, greater than 100 µM; in the assay on BT-549 breast it was 48.5 µM. The TGI with UACC-62 melanoma stood at 29.4 µM; in the assay with SN12C renal, 33.9 µM; in the assay with RXF 393 renal, 43.5 µM.

Consider `CCOC(=O)c1c(-c2ccccc2)[n+](=O)c2cc(Cl)c(Cl)cc2n1[O-]`, for which the GI50 is 15.5 µM with A549 NSCLC; 13.3 µM with M14 melanoma; 2.48 µM in the assay with OVCAR-4 ovarian; 12 µM with HT29 colon; 17.3 µM in the assay with BT-549 breast; 5.11 µM in the assay on UACC-62 melanoma. The figures for the GI50 in the assay with SN12C renal, in the assay on RXF 393 renal and with HL-60(TB) leukemia were 3.03 µM, 6.59 µM and 2.68 µM, respectively. In addition, the TGI was 34.4 µM with A549 NSCLC; 27.9 µM in the assay on M14 melanoma; 6.62 µM in the assay on OVCAR-4 ovarian; 36.3 µM in the assay with HT29 colon; 33.5 µM in the assay with BT-549 breast; 22.6 µM with UACC-62 melanoma. In addition, the TGI is 22.2 µM with SN12C renal, 22.9 µM with RXF 393 renal and greater than 100 µM with HL-60(TB) leukemia.

With `CCCCN(CCCC)C(=O)[C@H](CC)[C@@H]1CC[C@@H](C)[C@@H]([C@H](C)[C@@H](O)[C@@H](C)C(=O)[C@H](CC)C2O[C@]3(C=C[C@@H](O)[C@]4(CC[C@@](C)([C@H]5CC[C@](O)(CC)[C@H](C)O5)O4)O3)[C@H](C)C[C@@H]2C)O1` (some centres undefined), the GI50 was 3.13 µM in the assay on CCRF-CEM leukemia; 3.12 µM in the assay with A549 NSCLC; 2.85 µM in the assay on OVCAR-4 ovarian; 2.88 µM in the assay with HT29 colon; 2.73 µM in the assay with BT-549 breast; 1.47 µM with UACC-62 melanoma. In addition, the GI50 was 2.13 µM with SN12C renal, 1.59 µM in the assay with RXF 393 renal and 2.35 µM with HL-60(TB) leukemia. For the same compound, the TGI amounted to 11.7 µM in the assay on CCRF-CEM leukemia; 34.4 µM with A549 NSCLC; 36 µM in the assay with OVCAR-4 ovarian; 12.4 µM in the assay on HT29 colon; 11.3 µM with BT-549 breast; 3.6 µM with UACC-62 melanoma. Moreover, the TGI in the assay on SN12C renal was 7.34 µM; with RXF 393 renal it was 3.37 µM; in the assay on HL-60(TB) leukemia, 5.7 µM.
